By MIC is commonly meant the smallest concentration in the dilution series that meets the test's criterion for growth inhibition. Low readings indicate greater potency, high ones weaker potency.

Assay [1] has as its system M. tuberculosis mono-resistant to RIF (RMPR, ATCC 35838), rpoB H526Y. It counts as cell-based, Mycobacterium tuberculosis.
Assay [2] relates to M. tuberculosis mono-resistant to INH (INHR, ATCC 35822), katG S315T. It counts as cell-based, Mycobacterium tuberculosis.

In brackets after ≈: the same amount, converted by molar mass. Some results are limits rather than exact numbers.

In the case of `O=C1C(Cl)=C(Cl)C(=O)c2ccccc21` [Compound 1, 2,3-Dichloronaphthalene-1,4-dione], the MIC in assay [1] and in assay [2] was 110.6 µM (≈ 25.1 µg/mL) in each case.
Consider `CC1(C)CCC2=C(O1)C(=O)c1ccccc1C2=O` [Compound 2, 2,2-Dimethyl-3,4-dihydro-2H-benzo[g]chromene-5, 10-dione], for which the MIC in assay [1] and in assay [2] was 206.6 µM (≈ 50.1 µg/mL) throughout.
Consider `CC1(C)CC2=C(O1)C(=O)c1ccccc1C2=O` [Compound 3, 2,2-Dimethyl-2,3-dihydronaphtho[2,3-b]furan-4,9-dione], for which the MIC in assay [1] and in assay [2] was 54.8 µM (≈ 12.5 µg/mL) in each case.
With `C=CCOC1=CC(=O)c2ccccc2C1=O` [Compound 4, 2-(Allyloxy)naphthalene-1,4-dione], the MIC in assay [1] and in assay [2] was 234 µM (≈ 50.1 µg/mL) throughout.
In the case of `NC1=CC(=O)c2ccccc2C1=O` [Compound 5, 2-Aminonaphthalene-1,4-dione], the MIC in assay [1] and in assay [2] was 36.1 µM (≈ 6.25 µg/mL) throughout.
As to `O=C1C=C(Nc2ccccc2)C(=O)c2ccccc21` [Compound 6, 2-(Phenylamino)naphthalene-1,4-dione], the MIC in assay [1] worked out at 12.5 µM (≈ 3.12 µg/mL); in assay [2], 100.4 µM (≈ 25 µg/mL).
The corresponding values for `NNC(=O)c1ccncc1` [INH, isoniazid, reference compound] are at most 0.219 µM and 14.6 µM (≈ 2 µg/mL).
The corresponding values for `CO[C@H]1/C=C/O[C@@]2(C)Oc3c(C)c(O)c4c(O)c(c(/C=N/N5CCN(C)CC5)c(O)c4c3C2=O)NC(=O)/C(C)=C\C=C\[C@H](C)[C@H](O)[C@@H](C)[C@@H](O)[C@@H](C)[C@H](OC(C)=O)[C@@H]1C` [RIF, rifampicin, reference compound] are 622.2 µM (≈ 512 µg/mL) and 0.304 µM (≈ 0.25 µg/mL).

For the origin of these results see paper PMC5900025, “Naphthoquinone Derivatives as Scaffold to Develop New Drugs for Tuberculosis Treatment” (Frontiers in Microbiology, 2018).
